Data taken from PubChem BioAssay (NCI).
“And” between values parts separate entries of the source, which are not always exact repeats. Equal values may be shown once.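 How tested: cells in 96-well plates exposed to compound for 48 hours at five concentrations. Abbreviation: GI50, concentration required for 50% inhibition of growth. Definition used: TGI = concentration required for complete inhibition of growth.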

Legend:
Test in all cases: growth of human tumour cells (NCI), 48 h
[1] = test system: SF-539 CNS
[2] = test system: RPMI-8226 leukemia
[3] = test system: SW-620 colon
[4] = test system: NCI/ADR-RES ovarian
[5] = test system: A549 NSCLC
[6] = test system: NCI-H23 lung
[7] = test system: MDA-MB-435
[8] = test system: MCF7 breast
[9] = test system: PC-3 prostate
[10] = test system: COLO 205 colon

## CCCNC(=S)/N=C/c1c(O)c2ccccc2[nH]c1=O
[1]
  TGI: > 100 µM
[2]
  TGI: > 100 µM
[3]
  TGI: > 100 µM
[4]
  TGI: > 100 µM
[5]
  TGI: > 100 µM
[6]
  TGI: > 100 µM
[7]
  TGI: > 100 µM
[8]
  TGI: > 100 µM
[9]
  TGI: > 100 µM
[10]
  TGI: > 100 µM

## COc1ccc2[nH]cc(-c3nc(-c4c[nH]c5ncccc45)cs3)c2c1
[1]
  GI50: 4.88 µM
  TGI: > 100 µM
[2]
  GI50: 4.76 µM
  TGI: > 100 µM
[3]
  GI50: 3.46 µM
  TGI: > 100 µM
[4]
  GI50: 3.75 µM
  TGI: > 100 µM
[5]
  GI50: 3.4 µM
  TGI: > 100 µM
[6]
  GI50: 4.38 µM
  TGI: > 100 µM
[7]
  GI50: 5.87 µM
  TGI: > 100 µM
[8]
  GI50: 3.33 µM
  TGI: > 100 µM
[9]
  GI50: 4.33 µM
  TGI: > 100 µM
[10]
  GI50: 0.661 µM
  TGI: 3.88 µM

## CC(C)=CCc1cc(O)cc2c1OC(C=C(C)C)C1=C2C(=O)C2=C(NCCS2(=O)=O)C1=O (stereo not given)
[1]
  GI50: 2.58 µM
  TGI: 4.82 µM
[2]
  GI50: 4.42 µM
  TGI: 14 µM
[3]
  GI50: 2.32 µM
  TGI: 5.78 µM
[4]
  GI50: > 16.7 µM
  TGI: > 16.7 µM
[5]
  GI50: 3.17 µM
  TGI: 6.83 µM
[6]
  GI50: 1.91 µM
  TGI: 6.53 µM
[7]
  GI50: 0.315 µM
  TGI: 0.634 µM
[8]
  GI50: 1.21 µM
  TGI: 4.92 µM
[9]
  GI50: 4.14 µM
  TGI: > 16.7 µM
[10]
  GI50: 2.67 µM
  TGI: 5.57 µM

## Cc1ccc(-c2nc3ccc([N+](=O)[O-])cc3[nH]2)cc1
[1]
  TGI: > 100 µM
[2]
  TGI: > 100 µM
[3]
  TGI: > 100 µM
[4]
  TGI: > 100 µM
[5]
  TGI: > 100 µM
[6]
  TGI: > 100 µM
[7]
  TGI: > 100 µM
[8]
  TGI: > 100 µM
[9]
  TGI: > 100 µM
[10]
  TGI: > 100 µM

## N#Cc1c(-c2ccc(F)cc2)c(-c2ccc(F)cc2)nn(CCO)c1=O
[1]
  TGI: 0.553 µM
[2]
  TGI: > 100 µM
[3]
  TGI: > 100 µM
[4]
  TGI: 22.5 µM
[5]
  TGI: > 100 µM
[6]
  TGI: > 78.3 µM
[7]
  TGI: 0.608 µM
[8]
  TGI: > 100 µM
[9]
  TGI: 54.7 µM
[10]
  TGI: 2.44 µM

## O=c1c2ccccc2sc2cccc(NCCCN3CCN(CCCNc4cccc5sc6ccccc6c(=O)c45)CC3)c12
[1]
  TGI: > 100 µM
[2]
  TGI: > 100 µM
[3]
  TGI: > 100 µM
[4]
  TGI: > 100 µM
[5]
  TGI: > 100 µM
[6]
  TGI: > 100 µM
[7]
  TGI: > 100 µM
[8]
  TGI: > 100 µM
[9]
  TGI: > 100 µM
[10]
  TGI: > 100 µM

## CCCn1c(N)c(C(=O)N/N=C(/C)c2cc3cccc(OC)c3o2)sc1=S
[1]
  GI50: 17.1 µM
  TGI: 90.7 µM
[2]
  GI50: 53.6 µM
  TGI: > 100 µM
[3]
  GI50: 19.2 µM
  TGI: > 100 µM
[4]
  GI50: 18.6 µM
  TGI: > 100 µM
[5]
  GI50: 12.5 µM
  TGI: > 100 µM
[6]
  GI50: 41.1 µM
  TGI: > 100 µM
[7]
  GI50: 56.6 µM
  TGI: > 100 µM
[8]
  GI50: 28 µM
  TGI: > 100 µM
[9]
  GI50: 30.6 µM
  TGI: > 100 µM
[10]
  GI50: 56.7 µM
  TGI: > 100 µM

## C=CC(=O)N1CCC(C2CCNc3c(C(N)=O)c(-c4ccc(Oc5ccccc5)cc4)nn32)CC1 (stereo not given)
[1]
  GI50: 13.5 µM
  TGI: 43 µM
[2]
  GI50: 12.4 µM
  TGI: 39.5 µM
[3]
  GI50: 31.8 µM
  TGI: > 100 µM
[4]
  GI50: 16.4 µM
  TGI: 61 µM
[5]
  GI50: 21.2 µM
  TGI: > 100 µM
[6]
  GI50: 16.5 µM
  TGI: 39.9 µM
[7]
  GI50: 13.4 µM
  TGI: 38 µM
[8]
  GI50: 12.3 µM
  TGI: 59.4 µM
[9]
  GI50: 22 µM
  TGI: 69.6 µM
[10]
  GI50: 19.1 µM
  TGI: 40.2 µM

## Cc1[nH]c2ccccc2c1-c1cc(-c2cc(-c3c(C)[nH]c4ccccc34)on2)no1
[1]
  TGI: > 100 µM
[2]
  TGI: > 100 µM
[3]
  TGI: > 100 µM
[4]
  TGI: > 100 µM
[5]
  TGI: > 100 µM
[6]
  TGI: > 100 µM
[7]
  TGI: 80.6 µM
[8]
  TGI: > 100 µM
[9]
  TGI: > 100 µM
[10]
  TGI: > 100 µM

## CC(=O)c1cc2c(o1)C(=O)c1ccccc1C2=O
[1]
  GI50: 0.178 µM and 0.184 µM
  TGI: 0.317 µM and 0.328 µM
[2]
  GI50: 0.731 µM and 0.917 µM
  TGI: 1.8 µM and 3.86 µM
[3]
  GI50: 0.288 µM and 0.276 µM
  TGI: 0.794 µM and 0.756 µM
[4]
  GI50: 0.341 µM and 0.329 µM
  TGI: 1.81 µM and 1.47 µM
[5]
  GI50: 0.217 µM and 0.208 µM
  TGI: 0.453 µM and 0.434 µM
[6]
  GI50: 0.19 µM and 0.153 µM
  TGI: 0.535 µM and 0.458 µM
[7]
  GI50: 0.089 µM and 0.181 µM
  TGI: 0.238 µM and 0.33 µM
[8]
  GI50: 0.167 µM and 0.171 µM
  TGI: 0.394 µM
[9]
  GI50: 0.713 µM and 0.825 µM
  TGI: 2.81 µM and 4.48 µM
[10]
  GI50: 0.192 µM and 1.72 µM
  TGI: 0.374 µM and 3.44 µM
